# pIC50: −log10 of the molar value. Activity calls are given as the source filed them. The rule behind the calls is not given here.
# Legend:
# [1] = system: MCF7; experiment: Antitumor activity against human MCF7 cells xenografted in Balb/c nude mouse assessed as tumor growth inhibition at 4 mg/kg, ip administered every other day for 20 days relative to control; type: functional; settings: MCF7, 480 h, time 20 day, read-out: TGI
# [2] = Antitumor activity against human Tamoxifen-resistant LCC2 cells xenografted in Balb/c nude mouse assessed as tumor growth inhibition at 4 mg/kg, ip administered every other day for 20 days relative to control; type: functional; settings: Tamoxifen-resistant LCC2 cell, 480 h, time 20 day, read-out: TGI
# [3] = molecular target: T1, Estrogen receptor (Homo sapiens) (UniProt P03372); experiment: Binding affinity to human ERalpha assessed as relative binding affinity incubated under vibration for 1 min followed by 2 hrs incubation under dark condition by fluorescence polarization assay relative to estradiol; settings: time 121.0 min
# T1 sequence (whole entry): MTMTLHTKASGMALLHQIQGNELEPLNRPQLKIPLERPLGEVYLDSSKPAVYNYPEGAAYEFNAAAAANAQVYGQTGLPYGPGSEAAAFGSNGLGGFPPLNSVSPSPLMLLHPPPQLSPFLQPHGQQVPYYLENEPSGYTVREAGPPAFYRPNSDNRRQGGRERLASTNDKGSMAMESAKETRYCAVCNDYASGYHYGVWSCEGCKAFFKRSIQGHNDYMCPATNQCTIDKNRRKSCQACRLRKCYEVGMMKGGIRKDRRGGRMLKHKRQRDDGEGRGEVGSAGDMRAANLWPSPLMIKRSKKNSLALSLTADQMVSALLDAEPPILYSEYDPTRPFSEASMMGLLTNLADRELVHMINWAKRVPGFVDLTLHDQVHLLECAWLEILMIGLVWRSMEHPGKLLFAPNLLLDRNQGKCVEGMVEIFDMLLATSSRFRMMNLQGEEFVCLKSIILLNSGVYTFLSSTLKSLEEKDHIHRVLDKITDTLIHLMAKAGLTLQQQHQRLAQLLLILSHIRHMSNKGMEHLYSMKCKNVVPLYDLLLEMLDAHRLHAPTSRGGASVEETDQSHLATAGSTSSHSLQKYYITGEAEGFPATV
# [4] = species on record: Homo sapiens; experiment: Selectivity ratio of relative binding affinity for human ERalpha to relative binding affinity to human ERbeta
# [5] = Selectivity index, ratio of IC50 for cytotoxicity against human MCF-10A cells to IC50 for antiproliferative activity against human MCF7 cells; type: toxicity, cell-based; settings: MCF-10A cells and MCF7 cells, read-out: Ratio IC50
# [6] = system: MCF7; experiment: Antiproliferative activity against ERalpha positive human MCF7 cells assessed as inhibition of cell proliferation incubated for 72 hrs by CCK8 assay; type: functional, cell-based; settings: MCF7, 72 h
# [7] = system: T47D; experiment: Antiproliferative activity against ERalpha positive human T47D cells assessed as inhibition of cell proliferation incubated for 72 hrs by CCK8 assay; type: functional, cell-based
# [8] = Cytotoxicity against human MCF-10A cells assessed as inhibition of cell proliferation incubated for 72 hrs by CCK8 assay; type: toxicity, cell-based
# [9] = molecular target: T2, Tubulin (Homo sapiens) (UniProt P68371+Q9H4B7+P0DPH7+P68366+Q13509+Q71U36+P04350+Q3ZCM7+P07437+P68363+Q9BQE3+Q6PEY2+Q13885+Q9BVA1+Q9BUF5); experiment: Inhibition of tubulin polymerization (unknown origin) at 30 uM incubated for 60 mins by microplate reader analysis; type: protein-complex assay
# [10] = system: MDA-MB-231; experiment: Antiproliferative activity against ERalpha negative human MDA-MB-231 cells assessed as inhibition of cell proliferation incubated for 72 hrs by CCK8 assay; type: functional, cell-based; settings: MDA-MB-231, 72 h
# [11] = molecular target: Estrogen receptor beta (Homo sapiens) (UniProt Q92731); experiment: Binding affinity to human ERbeta assessed as relative binding affinity incubated under vibration for 1 min followed by 2 hrs incubation under dark condition by fluorescence polarization assay relative to estradiol; settings: time 121.0 min
# Estrogen receptor beta (Homo sapiens), sequence (Q92731 whole entry): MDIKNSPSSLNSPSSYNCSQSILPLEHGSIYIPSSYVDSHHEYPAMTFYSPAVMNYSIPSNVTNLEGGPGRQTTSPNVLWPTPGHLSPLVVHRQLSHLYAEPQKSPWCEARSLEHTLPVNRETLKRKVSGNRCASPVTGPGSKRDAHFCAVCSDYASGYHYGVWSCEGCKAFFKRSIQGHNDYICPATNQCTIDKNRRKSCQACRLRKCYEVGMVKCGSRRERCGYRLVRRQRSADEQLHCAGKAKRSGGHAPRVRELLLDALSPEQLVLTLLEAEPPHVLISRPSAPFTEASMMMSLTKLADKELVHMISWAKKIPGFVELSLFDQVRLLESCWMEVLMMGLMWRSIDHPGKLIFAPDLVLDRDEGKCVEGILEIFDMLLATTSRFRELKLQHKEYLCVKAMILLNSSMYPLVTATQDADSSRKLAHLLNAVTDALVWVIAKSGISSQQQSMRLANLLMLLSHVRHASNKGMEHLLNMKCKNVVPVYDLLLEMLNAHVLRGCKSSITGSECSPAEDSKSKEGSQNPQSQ
# [12] = molecular target: T1, Estrogen receptor (Homo sapiens); experiment: Induction of ERalpha degradation in human MCF7 cells at 5 uM incubated for 24 hrs by Western blot analysis; type: cell-based
# [13] = molecular target: T1, Estrogen receptor (Homo sapiens); experiment: Induction of ERalpha degradation in human MCF7 cells at 5 uM incubated for 24 hrs by Western blot analysis relative to SeCN-OBHSA derivatives; type: cell-based
# [14] = Antiproliferative activity against human Tamoxifen-resistant LCC2 cells assessed as inhibition of cell proliferation incubated for 72 hrs by CCK8 assay; type: functional, cell-based
# [15] = system: T47D; experiment: Antiproliferative activity against human T47D cells harboring ERalpha D538G mutant assessed as inhibition of cell proliferation incubated for 72 hrs by CCK8 assay; type: functional, cell-based
# [16] = system: T47D; experiment: Antiproliferative activity against human T47D cells harboring ERalpha Y537S mutant assessed as inhibition of cell proliferation incubated for 72 hrs by CCK8 assay; type: functional, cell-based
# [17] = molecular target: T2, Tubulin (Homo sapiens); experiment: Disruption of microtubule network in human MCF7 cells assessed as chaotic microtubule network at 2 uM incubated for 48 hrs by DAPI staining based confocal laser scanning microscopic analysis; type: cell-based
# [18] = Toxicity in Balb/c nude mouse xenografted with human MCF7 cells assessed as effect on kidney morphology at 2 to 4 mg/kg, ip administered every other day for 20 days by H&E staining based analysis; type: organism-based; settings: in vivo, 480 h, dose 2-4 mg/kg, time 20 day
# [19] = molecular target: T1, Estrogen receptor (Homo sapiens); experiment: Induction of ERalpha degradation in human MCF7 cells incubated for 6 to 24 hrs by Western blot analysis; type: cell-based; settings: dose 0.5-5 µM, time 6-24 hrs
# [20] = system: Estrogen receptor (Homo sapiens), P03372 [Y537S]; experiment: Induction of ERalpha degradation in human T47D cells harboring ERalpha Y537S mutant at 0.5 to 5 uM incubated for 24 hrs by Western blot analysis; type: cell-based; settings: dose 0.5-5 µM
# Estrogen receptor (Homo sapiens), P03372 [Y537S], sequence (P03372 whole entry Y537S): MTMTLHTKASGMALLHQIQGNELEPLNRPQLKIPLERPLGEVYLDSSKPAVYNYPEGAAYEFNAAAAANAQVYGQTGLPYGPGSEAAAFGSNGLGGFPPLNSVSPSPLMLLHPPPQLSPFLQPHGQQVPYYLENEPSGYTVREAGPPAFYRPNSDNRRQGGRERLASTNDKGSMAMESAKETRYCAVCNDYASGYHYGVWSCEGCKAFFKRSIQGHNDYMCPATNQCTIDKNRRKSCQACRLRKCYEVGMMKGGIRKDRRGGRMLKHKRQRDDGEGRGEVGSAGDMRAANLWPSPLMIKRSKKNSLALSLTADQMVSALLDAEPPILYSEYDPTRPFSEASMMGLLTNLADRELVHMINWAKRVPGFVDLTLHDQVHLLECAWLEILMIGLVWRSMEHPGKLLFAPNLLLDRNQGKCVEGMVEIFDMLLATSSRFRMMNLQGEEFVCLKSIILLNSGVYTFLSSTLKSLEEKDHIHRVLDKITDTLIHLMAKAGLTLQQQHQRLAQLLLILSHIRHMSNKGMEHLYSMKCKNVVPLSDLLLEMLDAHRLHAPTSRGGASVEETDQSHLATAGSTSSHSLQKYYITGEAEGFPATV
# [21] = molecular target: T1, Estrogen receptor (Homo sapiens); experiment: Induction of ERalpha degradation in human MCF7 cells at 1 uM incubated for 6 to 24 hrs by Western blot analysis; type: cell-based; settings: time 6-24 hrs
# [22] = system: MCF7; experiment: Antitumor activity against human MCF7 cells xenografted in Balb/c nude mouse assessed as tumor growth inhibition at 2 mg/kg, ip administered every other day for 20 days relative to control; type: functional; settings: MCF7, 480 h, time 20 day, read-out: TGI
# [23] = molecular target: T1, Estrogen receptor (Homo sapiens); experiment: Induction of ERalpha degradation in human Tamoxifen-resistant LCC2 cells at 0.5 uM incubated for 6 to 24 hrs by Western blot analysis; type: cell-based; settings: Tamoxifen-resistant LCC2 cell, time 6-24 hrs
# [24] = Toxicity in Balb/c nude mouse xenografted with human MCF7 cells assessed as effect on heart morphology at 2 to 4 mg/kg, ip administered every other day for 20 days by H&E staining based analysis; type: organism-based; settings: in vivo, 480 h, dose 2-4 mg/kg, time 20 day
# [25] = system: Mus musculus; experiment: In vivo induction of ERalpha degradation in BALB/c nude mouse xenografted with human MCF7 cells assessed as decrease in ERalpha expression in tumor at 2 to 4 mg/kg, ip administered every other day for 20 days by Western blot analysis; type: functional, organism-based; settings: dose 2-4 mg/kg, time 20.0 day
# [26] = molecular target: T2, Tubulin (Homo sapiens); experiment: Disruption of microtubule network in human MCF7 cells assessed as ruptured microtubule network at 2 uM incubated for 48 hrs by DAPI staining based confocal laser scanning microscopic analysis; type: cell-based
# [27] = Toxicity in Balb/c nude mouse xenografted with human MCF7 cells assessed as effect on liver morphology at 2 to 4 mg/kg, ip administered every other day for 20 days by H&E staining based analysis; type: organism-based; settings: in vivo, 480 h, dose 2-4 mg/kg, time 20 day
# [28] = system: Estrogen receptor (Homo sapiens), P03372 [D538G]; experiment: Induction of ERalpha degradation in human T47D cells harboring ERalpha D538G mutant at 0.5 to 5 uM incubated for 24 hrs by Western blot analysis; type: cell-based; settings: dose 0.5-5 µM
# Estrogen receptor (Homo sapiens), P03372 [D538G], sequence (P03372 whole entry D538G): as the sequence (P03372 whole entry Y537S) above, with S537Y, D538G counted along it
# [29] = system: MCF7; experiment: Antitumor activity against human MCF7 cells xenografted in Balb/c nude mouse assessed as reduction in Ki67 positive cells at 2 to 4 mg/kg, ip administered every other day for 20 days by immunohistochemistry analysis; type: functional, organism-based; settings: dose 2-4 mg/kg, time 20.0 day
# [30] = system: Mus musculus; experiment: In vivo induction of ERalpha degradation in BALB/c nude mouse xenografted with human tamoxifen-resistant LCC2 cells assessed as decrease in ERalpha expression in tumor at 2 mg/kg, ip administered every other day for 20 days by Western blot analysis; type: functional, organism-based; settings: time 20.0 day
# [31] = Antitumor activity against human Tamoxifen-resistant LCC2 cells xenografted in Balb/c nude mouse assessed as tumor growth inhibition at 2 mg/kg, ip administered every other day for 20 days relative to control; type: functional; settings: Tamoxifen-resistant LCC2 cell, 480 h, time 20 day, read-out: TGI
# [32] = Toxicity in Balb/c nude mouse xenografted with human MCF7 cells assessed as body weight loss at 2 to 4 mg/kg, ip administered every other day for 20 days; type: organism-based; settings: in vivo, 480 h, dose 2-4 mg/kg, time 20 day
# [33] = system: Tamoxifen-resistant LCC2 cell; experiment: Antitumor activity against human Tamoxifen-resistant LCC2 cells xenografted in Balb/c nude mouse assessed as reduction in Ki67 positive cells at 2 mg/kg, ip administered every other day for 20 days by immunohistochemistry analysis; type: functional, organism-based; settings: time 20.0 day
# [34] = molecular target: T2, Tubulin (Homo sapiens); experiment: Disruption of microtubule network in human LCC2 cells assessed as ruptured microtubule network at 4 uM incubated for 48 hrs by DAPI staining based confocal laser scanning microscopic analysis; type: cell-based
# [35] = molecular target: T1, Estrogen receptor (Homo sapiens); experiment: Induction of ERalpha degradation in human MCF7 cells at 5 uM incubated for 24 hrs in the presence of MG-132 by Western blot analysis; type: cell-based
# [36] = molecular target: T2, Tubulin (Homo sapiens); experiment: Disruption of microtubule network in human LCC2 cells assessed as chaotic microtubule network at 4 uM incubated for 48 hrs by DAPI staining based confocal laser scanning microscopic analysis; type: cell-based
SMILES,RBA [3] [%],Selectivity ratio [4],pIC50 [6],pIC50 [7],RBA [11] [%],Activity [13],pIC50 [15],pIC50 [16],inhibition in vivo at 4 mg/kg [1] [%],selectivity ratio [5],IC50 at 72 h [8] [µM],tubulin polymerization inhibition (active/not active) [9],pIC50 [10],Activity [12],pIC50 [14],further results
CC/C(=C(\c1ccccc1)c1ccc(OCCN(C)C)cc1)c1ccccc1 [TAMOXIFEN],–,–,–,–,–,–,–,–,71.4,–,–,–,–,–,–,inhibition in vivo at 4 mg/kg [2]: 6.25%
N#C[Se]CCCCCC(=O)Nc1ccccc1,0.04,7,5.45,5.37,0.01,–,–,–,–,0.64,2.26,Active,6.44,inactive,–,–
N#C[Se]CCCCCC(=O)Nc1ccc(C2=C(c3ccc(O)cc3)C3CC(S(=O)(=O)N(CC(F)(F)F)c4ccc(Cl)cc4)C2O3)cc1 (centres undefined),7.52,752,6.60,4.87,0.01,Active,5.29,5.36,–,130,32.4,–,–,–,5.17,–

# Second part, led by results:
RBA [3] [%],Selectivity ratio [4],pIC50 [6],pIC50 [7],RBA [11] [%],Activity [13],pIC50 [15],pIC50 [16],SMILES,inhibition in vivo at 4 mg/kg [1] [%],selectivity ratio [5],IC50 at 72 h [8] [µM],tubulin polymerization inhibition (active/not active) [9],pIC50 [10],Activity [12],pIC50 [14],further results
7.18,18.9,6.77,5.24,0.38,Active,5.57,5.57,N#C[Se]CCCCCC(=O)Nc1ccc(C2=C(c3ccc(O)cc3)C3CC(S(=O)(=O)N(CC(F)(F)F)c4ccc(F)cc4)C2O3)cc1 (centres undefined),–,71.9,12.2,–,–,–,5.35,–
7.26,15.8,7.05,5.55,0.46,Active,5.52,5.84,CCN(c1ccccc1F)S(=O)(=O)C1CC2OC1C(c1ccc(NC(=O)CCCCC[Se]C#N)cc1)=C2c1ccc(O)cc1 (centres undefined),79.3,203,18.3,Active,5.43,Active,5.55,Activity [17]: Active; Activity [18]: Non-Toxic; Activity [19]: Dose-Dependent Effect; Activity [20]: Active; Activity [21]: Active; inhibition in vivo at 2 mg/kg [22]: 69.1%; Activity [23]: 100%; Activity [24]: Non-Toxic; Activity [25]: Active; Activity [26]: Active; Activity [27]: Non-Toxic; Activity [28]: Active; Activity [29]: Active; Activity [30]: Active; inhibition in vivo at 2 mg/kg [31]: 56.9%; Activity [32]: Non-Toxic; Activity [33]: Active; Activity [34]: Active; Activity [35]: inactive; Activity [36]: Active

# — ChEMBL document CHEMBL5360672, “Identification of Novel Dual-Target Estrogen Receptor α Degraders with Tubulin Inhibitory Activity for the Treatment of Endocrine-Resistant Breast Cancer” (J Med Chem, 2023)
